Data reported in patent publication US9034866B2 (Genentech, Inc., priority 2012, dated 2015).

Columns and labels:
[1] = tested on: REL-A (p65) nuclear translocation in HeLa cells; assay: REL-A nuclear translocation assay (classical NF-kB signaling), high content imaging; type: cell-based; conditions: Homo sapiens, HeLa, compounds 4.5 hours, then 10 ng/mL TNF-α for 30 minutes, read-out: REL-A HeLa Transloc Assay (IC50)
Protocol: (§1) (2) A second set of cell assay are used to define the selectivity of NIK inhibitors toward inhibition of classical vs. non-classical NF-kB signaling and rely on quantification of the nuclear translocation of p52 (NF-kB2) and REL-A (p65) using high content cellular imaging. For the p52 (non-classical NF-kB signaling) nuclear translocation assay, HeLa cells are treated with different concentrations of compounds (0.2% DMSO final) in medium containing 10% fetal bovine serum and then stimulated with 100 ng/mL, of an anti-lymphotoxin beta receptor antibody (R&D Systems) for 5 hours. In the REL-A nuclear translocation assay, HeLa cells are incubated with compounds (0.2% DMSO final) for 4.5 hours in medium containing 10% fetal bovine serum before stimulating them with 10 ng/mL tumor necrosis factor (TNF)-α (R&D Systems) for 30 minutes. Cells are fixed with 4% paraformaldehyde, permeabilized by adding 0.1% Triton X-100 in phosphate buffered saline, and then are incubated with either 2 ug/mL anti-p52 antibody (Millipore) or 400 ng/mL anti-REL-A (p65) antibody (Santa Cruz Biotechnology). Finally, the cells are incubated with an Alexa488-labeled secondary antibody (Invitrogen) and DRAQ5 DNA stain (Biostatus). Imaging is carried out using an Opera reader (Perkin Elmer) and data are analyzed with the aid of Acapella software (Perkin Elmer). The p52 or REL-A translocation into the nucleus is quantified by the ratio of the nuclear to cytoplasmic signal intensity. […] The compounds in listed in Table 1 have the corresponding inhibitory value (IC50 in micromolar) for NIK p52 Translocation Assay as set forth in Table 2.
The compounds in listed in Table 1 has the corresponding inhibitory value (IC50 in micromolar) for NIK RelA Translocation Assay as set forth in Table 2.

[2] = tested on: p52 (NF-kB2) nuclear translocation in HeLa cells; assay: p52 nuclear translocation assay (non-classical NF-kB signaling), high content imaging; type: cell-based; conditions: Homo sapiens, HeLa, 5 h, 100 ng/mL anti-lymphotoxin beta receptor antibody for 5 hours, read-out: p52 HeLa Transloc Assay (IC50)
Protocol: as §1

[3] = target: nuclear factor-kappa B (NF-kB)-inducing kinase (NIK) (Homo sapiens (Human), UniProt Q99558); assay: NIK Enzyme Inhibition Assay (Transcreener ADP fluorescence polarization); type: biochemical; conditions: purified NIK 0.2-1 nM, 10 uM ATP, Morrison's quadratic equation; read-out: NIK ADP-FP (Ki uM)
Summary of the method: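 Fluorescence-polarization ADP detection (tracer displacement, 633 nm excitation) read after EDTA/Brij quench. Reaction: 0.2-1 nM insect-cell-derived NIK, 10 uM ATP, HEPES pH 7.2 with MgCl2 and DTT, 1% DMSO, 1-3.5 h with compounds.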

Chain of nuclear factor-kappa B (NF-kB)-inducing kinase (NIK) (Q99558 whole entry): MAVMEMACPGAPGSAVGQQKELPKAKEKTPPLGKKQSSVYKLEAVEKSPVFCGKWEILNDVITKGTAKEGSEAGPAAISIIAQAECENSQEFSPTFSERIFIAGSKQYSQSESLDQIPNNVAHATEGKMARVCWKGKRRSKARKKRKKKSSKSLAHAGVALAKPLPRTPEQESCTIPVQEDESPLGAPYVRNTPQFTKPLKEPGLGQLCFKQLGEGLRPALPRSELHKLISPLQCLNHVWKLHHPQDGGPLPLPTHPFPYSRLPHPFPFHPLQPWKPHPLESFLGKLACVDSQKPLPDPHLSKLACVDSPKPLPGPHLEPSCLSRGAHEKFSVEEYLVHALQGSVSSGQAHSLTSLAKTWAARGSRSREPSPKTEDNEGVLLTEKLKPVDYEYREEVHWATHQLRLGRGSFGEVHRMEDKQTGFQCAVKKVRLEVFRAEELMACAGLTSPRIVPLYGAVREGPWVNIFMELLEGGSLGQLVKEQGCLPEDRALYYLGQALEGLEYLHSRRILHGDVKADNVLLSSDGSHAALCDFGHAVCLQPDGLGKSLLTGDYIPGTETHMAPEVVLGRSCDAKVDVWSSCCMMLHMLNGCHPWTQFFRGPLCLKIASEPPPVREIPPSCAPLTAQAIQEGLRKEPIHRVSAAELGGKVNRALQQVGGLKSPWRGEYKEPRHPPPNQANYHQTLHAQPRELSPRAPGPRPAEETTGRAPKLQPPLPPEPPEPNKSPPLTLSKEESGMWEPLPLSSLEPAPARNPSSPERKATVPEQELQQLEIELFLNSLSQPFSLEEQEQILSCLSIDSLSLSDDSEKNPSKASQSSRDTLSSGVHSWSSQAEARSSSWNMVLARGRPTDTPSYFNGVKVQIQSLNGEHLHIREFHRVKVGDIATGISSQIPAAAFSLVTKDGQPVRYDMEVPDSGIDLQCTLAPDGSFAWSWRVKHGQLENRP

Row | Structure (SMILES) | IC50 [1] [nM] | IC50 [2] [nM] | Ki [3] [µM]
1 | Cc1nc([C@](C)(O)C#Cc2cc3c(cc2F)OCCc2sc(C(N)=O)nc2-3)no1 | 20000 | 171 | 0.001
2 | CNC(=O)c1c(C(N)=O)nc2n1CCOc1ccc(C#CC(C)(O)c3ccccn3)cc1-2 (stereo not drawn) | > 20000 | 1400 | 0.0043
3 | CC(C)(O)C#Cc1cc2c(cc1F)C1CC(C1)n1c-2nc(C(N)=O)c1C(F)(F)F | > 20000 | 2600 | 0.0095
4 | CNC(=O)c1c(C(N)=O)nc2n1C1CC(C1)c1ccc(C#C[C@@](C)(O)c3noc(C)n3)cc1-2 | 17500 | 3800 | 0.0021
5 | CN1CCC(O)(C#Cc2cc3c(cc2F)OCCc2sc(C(N)=O)nc2-3)C1=O (stereo not drawn) | > 20000 | 450 | 0.00053
6 | CC(C)(O)C#Cc1cc2c(cc1F)C1CC(C1)n1c-2nc(C(N)=O)c1-c1nc(C2CC2)n[nH]1 | > 20000 | 3600 | 0.0013
7 | Cc1cc([C@](C)(O)C#Cc2ccc3c(c2)-c2nc(C(N)=O)c(-c4cnn(CC(C)(C)O)c4)n2C2CC3C2)no1 | > 20000 | 934 | 0.00059
8 | Cc1cc([C@](C)(O)C#Cc2cc3c(cc2F)C2CC(C2)c2[nH]c(C(N)=O)nc2-3)no1 | > 20000 | 477 | 0.0002
9 | C[C@@](O)(C#Cc1cc2c(cc1F)C1CC(C1)c1[nH]c(C(N)=O)nc1-2)c1ncccn1 | > 20000 | 1700 | 0.0026
10 | Cc1nc([C@](C)(O)C#Cc2cc3c(cc2F)C2CC(C2)n2c-3nc(C(N)=O)c2C)no1 | > 20000 | 1100 | 0.0007
11 | CNC(=O)c1c(C(N)=O)nc2n1C1CC(C1)c1cc(F)c(C#CC3(O)CCCC3)cc1-2 | > 20000 | 375 | 0.00012
12 | Cc1cc([C@](C)(O)C#Cc2cc3c(cc2F)C2CC(C2)n2c-3nc(C(N)=O)c2C)no1 | > 20000 | 385 | 0.0013
13 | C[C@@](O)(C#Cc1cc2c(cc1F)OCCn1c-2nc(C(N)=O)c1-c1nc(C2CC2)n[nH]1)c1ncccn1 | > 20000 | 1600 | 0.0047
14 | C[C@@](O)(C#Cc1ccc2c(c1)-c1nc(C(N)=O)c(-c3nc(C4CC4)n[nH]3)n1CCO2)c1ncccn1 | > 20000 | 2100 | 0.0072
15 | Cc1nc([C@](C)(O)C#Cc2cc3c(cc2F)C2CC(C2)c2c-3nc(C(N)=O)n2C)no1 | > 20000 | 835 | 0.0005
16 | Cn1c(C(N)=O)nc2c1C1CC(C1)c1cc(F)c(C#CC(C)(C)O)cc1-2 | > 20000 | 286 | 0.0078
